Laboratory results published in ChEMBL document CHEMBL4000226, “Inhibitory potential of flavonoids on PtdIns(3,4,5)P3 binding with the phosphoinositide-dependent kinase 1 pleckstrin homology domain” (Bioorg Med Chem Lett, 2017).
Activity calls are given as the source filed them. The calls are words filed in the database; no cut-off is given here.

Columns and labels:
[1] = biological target: 3-phosphoinositide-dependent protein kinase 1 (Homo sapiens) (UniProt O15530); assay: Inhibition of sucrose loaded POPC/POPE/POPS/PtdIns(3,4,5)P3 (59:20:20:1) liposome binding to eGFP-fused PDK1 PH domain (unknown origin) expressed in Escherichia coli BL21 after 10 mins by fluorescence spectrophotometry based pull down assay
[2] = biological target: 3-phosphoinositide-dependent protein kinase 1 (Homo sapiens) (UniProt O15530); assay: Inhibition of sucrose loaded POPC/POPE/POPS/PtdIns(3,4,5)P3 (59:20:20:1) liposome binding to eGFP-fused PDK1 PH domain (unknown origin) expressed in Escherichia coli BL21 at 10 uM after 10 mins by fluorescence spectrophotometry based pull down assay

3-phosphoinositide-dependent protein kinase 1 (Homo sapiens), sequence (O15530 whole entry, looked up, the tested form may be a part): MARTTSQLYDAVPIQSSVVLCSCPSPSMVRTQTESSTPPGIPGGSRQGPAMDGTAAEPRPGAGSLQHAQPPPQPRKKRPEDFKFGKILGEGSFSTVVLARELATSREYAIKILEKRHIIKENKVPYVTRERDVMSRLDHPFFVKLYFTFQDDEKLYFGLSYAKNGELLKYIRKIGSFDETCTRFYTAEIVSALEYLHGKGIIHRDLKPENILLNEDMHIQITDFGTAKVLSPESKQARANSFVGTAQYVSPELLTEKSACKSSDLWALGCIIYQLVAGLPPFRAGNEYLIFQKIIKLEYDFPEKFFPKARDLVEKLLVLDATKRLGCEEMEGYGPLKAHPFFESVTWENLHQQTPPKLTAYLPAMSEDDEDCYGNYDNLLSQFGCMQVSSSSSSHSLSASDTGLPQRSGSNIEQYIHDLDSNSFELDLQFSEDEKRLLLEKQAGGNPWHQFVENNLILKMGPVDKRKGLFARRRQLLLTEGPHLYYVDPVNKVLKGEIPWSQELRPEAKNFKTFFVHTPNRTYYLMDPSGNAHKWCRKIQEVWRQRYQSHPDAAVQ

SMILES	inhibition [1]	inhibition [2]
O=c1c(O)c(-c2ccc(O)c(O)c2)oc2cc(O)cc(O)c12	Dose-dependent effect	–
O=c1c(O)c(-c2cc(O)c(O)c(O)c2)oc2cc(O)cc(O)c12	Dose-dependent effect	–
COc1ccc2c(=O)cc(-c3ccccc3)oc2c1OC	–	Active
O=c1c(O)c(-c2ccc(O)c(O)c2)oc2cc(O)ccc12	Dose-dependent effect	Active
O=c1cc(-c2ccccc2)oc2cc(O)cc(O)c12	–	Active
COc1cc(OC)c2c(=O)cc(-c3ccccc3)oc2c1	–	Active
O=c1c(O)c(-c2ccccc2)oc2cc(O)cc(O)c12	–	Active
O=c1c(O)c(-c2ccc(O)c(O)c2)oc2c(O)c(O)cc(O)c12	Dose-dependent effect	–
O=c1cc(-c2ccc(O)cc2)oc2cc(O)ccc12	–	Active
O=c1cc(-c2ccccc2)oc2ccccc12	–	Active
